Laboratory results as given in patent publication US7563462B2, “Methods for modulating eicosanoid metabolism” (The University of Texas MD Anderson Cancer Center, priority 2005, dated 2009).

Columns and labels:
PC3 cells [1] = experiment: Eicosanoid add-back to composition-treated PC3 cells; type: cell-based, human
12-LOX = target: T1, 12-LOX (Homo sapiens, UniProt P18054); experiment: 12-HETE levels / 12-LOX activity in PC3 cells; type: cell-based; parameters: key: ↓ indicates reduction, inhibition, or downregulation; ↑ indicates enhancement, activation, or upregulation
T1 construct: endogenous in cells; host or cells: PC3 human prostate cancer cells
T1 sequence (P18054 1-663): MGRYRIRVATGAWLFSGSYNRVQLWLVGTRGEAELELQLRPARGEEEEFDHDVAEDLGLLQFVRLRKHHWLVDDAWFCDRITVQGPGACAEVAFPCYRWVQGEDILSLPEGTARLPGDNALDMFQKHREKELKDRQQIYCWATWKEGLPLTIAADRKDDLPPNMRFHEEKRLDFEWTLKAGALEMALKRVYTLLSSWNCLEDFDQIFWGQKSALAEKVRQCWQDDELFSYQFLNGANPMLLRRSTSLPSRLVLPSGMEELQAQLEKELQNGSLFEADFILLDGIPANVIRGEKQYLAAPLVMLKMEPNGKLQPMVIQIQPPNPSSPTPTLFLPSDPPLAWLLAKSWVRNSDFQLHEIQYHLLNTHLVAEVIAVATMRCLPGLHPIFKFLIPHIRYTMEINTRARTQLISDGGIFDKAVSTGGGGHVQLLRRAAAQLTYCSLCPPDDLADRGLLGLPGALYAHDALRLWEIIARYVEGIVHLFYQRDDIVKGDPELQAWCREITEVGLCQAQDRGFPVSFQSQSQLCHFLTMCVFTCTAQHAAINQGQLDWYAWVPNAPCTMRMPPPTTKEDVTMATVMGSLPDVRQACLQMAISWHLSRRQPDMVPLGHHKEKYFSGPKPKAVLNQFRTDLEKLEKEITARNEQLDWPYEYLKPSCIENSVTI

PC3 cells [2] = experiment: Cytotoxicity in PC3 cells; type: cell-based, human
PC3 cells [3] = experiment: Cell cycle distribution by flow cytometry; type: cell-based, human
Description: The herbal product produces a clear G2/M accumulation of cells that is evident even at concentrations as low as 0.28 ul/ml. At higher concentrations, the G2/M phase is more evident as is a sub G0 peak indicative of apoptosis. Concomitant with the rise in numbers of cells in G2/M there is a progressive concentration-dependent fall of cells in the G1 portion of the cell cycle. Only 10% of control cells are routinely present at the G2/M phase, while treatment with 0.57 ul/ml of the inventive compositions results in greater than 40% of cells in a G2/M block. […] The G2/M percentage of cells is small (small dark shaded peak to the right in the figure. In the second plot (upper right) PC3 cells have been treated with 0.28 ul of the inventive compositions/ml tissue culture media. The size of the G2/M peak increases. The plot in the lower left (0.57 ul of the inventive compositions/ml) and in the lower right (1.14 ul/ml) show an increasing cell cycle block due to increased concentration of the inventive compositions.

PC3 cells [4] = experiment: Phosphoprotein analyses of PC3 cell lysates; type: cell-based, human; parameters: key to Cyclin D1 / Cyclin D3 / Bcl-XL / Bax / Bcl-2 / pAKT / survivin / pRb content / Rb content: ↓ indicates reduction, inhibition, or downregulation; ↑ indicates enhancement, activation, or upregulation; conditions: nontoxic concentrations
Text: The data in Table 5 were derived from phosphoprotein analyses of PC3 cell lysates after treatment with nontoxic concentrations of either the inventive compositions or baicalein, a component of Scutellaria. Proteins were separated using gel electrophoresis and then the gel was probed with monoclonal antibodies to the proteins. The antibodies could detect differences in phosphorylation status of the proteins. Gels were then quantified using a densitometer. There are many similarities in the changes in phosphorylation status signaling similar up regulation or down regulation of proteins involved in cell cycle block (e.g. cyclin D1, cyclin D3 and pRB) or proteins associated with apoptosis (e.g. surviving, Bcl-XL and Bcl-2).

[5] = system: human tumor prostate (PC3); experiment: Effect of 13-S-HODE on proliferation, PC3; type: cell-based; conditions: read-out: IC50 (inhibition of cancer cell line growth)
Description: (§1) The relative ability of 13-S-HODE to inhibit prostate and colon cancer cell lines with an IC50 of about 3-4 uM. This is of importance when compared to the content of 13-S-HODE in the inventive composition. That is, as shown in Table 2 above there is sufficient 13-S-HODE within the composition to account for inhibition of cell growth. No doubt other factors within the composition also contribute to its ability to inhibit prostate and colon tumor cell growth but the ability of 13-S-HODE within the composition to be able to do this is of obvious interest.

[6] = system: lung adenocarcinoma (A549); experiment: Effect of 13-S-HODE on proliferation, A549; type: cell-based, human
colon (LS174) = experiment: Effect of 13-S-HODE on proliferation, LS174; type: cell-based; conditions: Homo sapiens, read-out: IC50 (inhibition of cancer cell line growth)
Description: as §1

PC3 cells [7] = experiment: Western blot of 5-LOX, 12-LOX and COX-2 protein in PC3 cells; type: cell-based, human
[8] = growth inhibitory concentrations of the inventive compositions

SMILES: CCCCC[C@H](O)/C=C/[C@H]1[C@H](O)CC(=O)[C@@H]1C/C=C\CCCC(=O)O [PGE2]
- cell proliferation after adding the eicosanoid to composition-treated PC3 cells (PC3 cells [1]; [8]): failed to block cellular proliferation

SMILES: O=c1cc(-c2ccccc2)oc2cc(O)c(O)c(O)c12 [Baicalein, baicalein]
- 12-LOX activity (12-LOX): ↓
- Cytotoxicity (PC3 cells [2]): Yes
- Cell cycle block (PC3 cells [3]): Yes
- Bax (PC3 cells [4]): ↑
- Bcl-2 (PC3 cells [4]): ↓
- Bcl-XL (PC3 cells [4]): ↓
- Cyclin D1 (PC3 cells [4]): ↓
- Cyclin D3 (PC3 cells [4]): ↓
- P27 (PC3 cells [4]): Strong ↓
- Rb content (PC3 cells [4]): ↑
- p21 (PC3 cells [4]): Strong ↓
- pAKT (PC3 cells [4]): ↓
- pRb content (PC3 cells [4]): ↓
- survivin (PC3 cells [4]): ↓

SMILES: CCCCCC(O)/C=C/C=C\CCCCCCCC(=O)O (stereo not drawn) [13-S-HODE, 13-hydroxyoctadeca-9Z, 11E-dienoic acid]
- IC50 [5]: 3 to 4 µM
- inhibition of cell growth [6]: not lung adenocarcinoma (A549) cell growth
- IC50 (colon (LS174)): 3 to 4 µM

SMILES: CC(c1cc2ccccc2s1)N(O)C(N)=O (stereo not drawn) [Zileuton]
- cellular content of 5-LOX protein (Western blot) (PC3 cells [7]): did not produce any change in relative 5-LOX enzyme content within cells

SMILES: CCCCC/C=C\C/C=C\C/C=C\C=C\[C@@H](O)CCCC(=O)O [5-HETE]
- cell proliferation after adding the eicosanoid to composition-treated PC3 cells (PC3 cells [1]; [8]): failed to block cellular proliferation

SMILES: CCCCC/C=C\C[C@H](O)/C=C/C=C\C/C=C\CCCC(=O)O [12-HETE]
- cell proliferation after adding the eicosanoid to composition-treated PC3 cells (PC3 cells [1]; inventive compositions 1 ul/ml): near doubling of cell proliferation
